Values of other authors in patent US12433860B2, “Treatment of multiple sclerosis comprising DHODH inhibitors” (Immunic AG, priority 2021, dated 2025).

Tested on: patients with active rheumatoid arthritis
Conditions: 35 mg once-daily for 13 weeks; cited from earlier work

## COc1cccc(-c2ccc(NC(=O)C3=C(C(=O)O)CCC3)c(F)c2)c1 [vidofludimus, 2-((3-fluoro-3′-methoxy-[1,1′-biphenyl]-4-yl)carbamoyl)cyclopent-1-enecarboxylic acid]
  diarrhoea, alopecia, neutropenia or liver enzyme elevations: no notable increases
  safety profile as compared to placebo: overall similar safety profile as compared to placebo
